Assay results published in patent US6444696B1, “Pyrazole derivatives P38 MAP kinase inhibitors” (Syntex (U.S.A.) LLC, priority 1998, dated 2002).
Structures can show the parent of a compound that is named as a salt.

Key:
[1] = molecular target: T1, p38 MAP kinase (Homo sapiens, UniProt Q16539); experiment: Inhibition of p-38 (MAP) kinase, in vitro assay (transfer of γ-33P from ATP to Myelin Basic Protein); assay type: biochemical; conditions: phosphorylated recombinant p38 MAP kinase, MBP substrate, γ-33P-ATP, 30° C.; read-out: IC50, μM (p-38 inhibitory activity)
T1 construct: made in house; host or cells: E. coli (co-expressed with SEK-1 and MEKK to obtain the phosphorylated form)
T1 sequence (Q16539 whole entry): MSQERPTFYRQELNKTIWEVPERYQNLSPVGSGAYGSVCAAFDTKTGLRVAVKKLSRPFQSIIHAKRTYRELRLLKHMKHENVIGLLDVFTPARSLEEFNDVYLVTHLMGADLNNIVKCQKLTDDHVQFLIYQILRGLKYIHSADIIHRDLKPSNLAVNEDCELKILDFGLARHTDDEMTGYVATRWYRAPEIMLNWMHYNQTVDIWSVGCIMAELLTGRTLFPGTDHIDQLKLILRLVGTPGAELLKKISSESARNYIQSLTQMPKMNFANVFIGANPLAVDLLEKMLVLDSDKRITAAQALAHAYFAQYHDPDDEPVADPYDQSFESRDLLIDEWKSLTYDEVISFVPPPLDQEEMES
Description: The p-38 MAP kinase inhibitory activity of compounds of this invention in vitro was determined by measuring the transfer of the γ-phosphate from γ-^33P-ATP by p-38 kinase to Myelin Basic Protein (MBP), using the a minor modification of the method described in Ahn, N. G.; et al. J. Biol. Chem. Vol. 266(7), 4220-4227, (1991).
The phosphorylated form of the recombinant p38 MAP kinase was expressed with SEK-1 and MEKK in E. Coli and then purified by affinity chromatography using a Nickel column.
The phosphorylated p38 MAP kinase was diluted in kinase buffer (20 mM 3-(N-morpholino)propanesulfonic acid, pH 7.2, 25 mM β-glycerol phosphate, 5 mM ethylene glycol-bis(beta-aminoethyl ether)-N,N,N′,N′-tetraacetic acid, 1 mM sodium vanadate, 1 mM dithiothreitol, 40 mM magnesium chloride). Test compound dissolved in DMSO or only DMSO (control) was added and the samples were incubated for 10 min at 30° C. The kinase reaction was initiated by the addition of a substrate cocktail containing MBP and γ-^33P-ATP. After incubating for an additional 20 min at 30° C., the reaction was terminated by adding 0.75% phosphoric acid. The phosphorylated MBP was then separated from the residual γ-^33P-ATP using a phosphocellulose membrane (Millipore, Bedford, Mass.) and quantitated using a scintillation counter (Packard, Meriden, Conn.).
Compounds of the invention were active in this assay.

[2] = test system: TNF-α Production In THP 1 Cells; experiment: Inhibition of LPS-induced TNF-α production in THP-1 cells, in vitro assay (ELISA); assay type: cell-based; conditions: Homo sapiens, LPS 0.5 μg/ml, 2 h, TNF-α by ELISA, read-out: IC50, μM (inhibition of TNF-α release)
Description: The ability of the compounds of this invention to inhibit the TNF-α release was determined using a minor modification of the methods described in described in Blifeld, C. et al. Transplantation, Vol. 51(2), 498-503, (1991).
THP-1 cells were suspended in culture medium [RPMI (Gibco-BRL, Gailthersburg, Md.) containing 15% fetal bovine serum, 0.02 mM 2-mercaptoethanol], at a concentration of 2.5×10^6 cells/ml and then plated in 96 well plate (0.2 ml aliquots in each well). Test compounds were dissolved in DMSO and then diluted with the culture medium such that the final DMSO concentration was […]. 20 μl aliquots of test solution or only medium with DMSO (control) were added to each well. The cells were incubated for 30 min., at 37° C. LPS (Sigma, St. Louis, Mo.) was added to the wells at a final concentration of 0.5 μg/ml, and cells were incubated for an additional 2 h. At the end of the incubation period, culture supernatants were collected and the amount of TNF-α present was determined using an ELISA assay as described below.
The amount of human TNF-α present was determined by a specific trapping ELISA assay using two anti-TNF-α antibodies (2TNF-H22 and 2TNF-H34) described in Reimund, J. M., et al. GUT. Vol. 39(5), 684-689 (1996).
Polystyrene 96-well plates were coated with 50 μl per well of antibody 2TNF-H22 in PBS (10 μg/ml) and incubated in a humidified chamber at 4° C. overnight. The plates were washed with PBS and then blocked with 5% nonfat-dry milk in PBS for 1 hour at room temperature and washed with 0.1% BSA (bovine serum albumin) in PBS.
TNF standards were prepared from a stock solution of human recombinant TNF-α (R&D Systems, Minneapolis, Minn.). The concentration of the standards in the assay began at 10 ng/ml followed by 6 half log serial dilution's.
25 μl aliquots of the above culture supernatants or TNF standards or only medium (control) were mixed with 25 μl aliquots of biotinylated monoclonal antibody 2TNF-H34 (2 μg/ml in PBS containing 0.1% BSA) and then added to each well. The samples were incubated for 2 h at room temperature with gentle shaking and then washed 3 times with 0.1% BSA in PBS. 50 μl of peroxidase-streptavidin (Zymed, S. San Francisco, Calif.) solution containing 0.416 μg/ml of peroxidase-streptavidin and 0.1% BSA in PBS was added to each well. The samples were incubated for an additional 1 h at room temperature and then washed 4 times with 0.1% BSA in PBS. 50 μl of O-phenylenediamine solution (1 μg/ml O-phenylene-diamine and 0.03% hydrogen peroxide in 0.2M citrate buffer pH 4.5) was added to each well and the samples were incubated in the dark for 30 min., at room temperature. Optical density of the sample and the reference were read at 450 nm and 650 nm, respectively. TNF-α levels were determined from a graph relating the optical density at 450 nm to the concentration used.
The IC50 value was defined as the concentration of the test compound corresponding to half-maximal reduction in 450 nm absorbance. Compounds of the invention were active in this assay. The activity of selected compounds is shown below.

[3] = test system: TNF-α Production In Rats; experiment: Inhibition of LPS-induced TNF-α production in rats, in vivo assay; parameters: species or system rat; conditions: dosed orally at 30 mg, LPS 50 μg/kg intraperitoneally after 30 min, serum TNF-α 1.5 h later
Description: The ability of the compounds of this invention to inhibit the TNF-α release, in vivo, was determined using a minor modification of the methods described in described in Zanetti, G.; Heumann, D., et. al. “Cytokine production after intravenous or peritoneal Gram-negative bacterial challenge in mice,” J. Immunol., 148, 1890, (1992) and Sekut, L., Menius, J. A., et. al., “Evaluation of the significance of elevated levels of systemic and localized tumor necrosis factor in different animal models of inflammation,” J. Lab. Clin. Med., 124, 813, (1994).
Female Sprague-Dawley rats weighing 110-140 grams (Charles River, Hollister, Calif.) were acclimated for one week. Groups containing 8 […] each were dosed orally either with the test compounds dissolved in an aqueous vehicle containing 0.9% sodium chloride, 0.5% sodium carboxymethyl-cellulose, 0.4% polysorbate 80, 0.9% benzyl alcohol (CMC vehicle) or only vehicle (control group). After 30 min., the mice were injected intraperitoneally with 50 μg/kg of LPS (Sigma, St. Louis, Mo.). After 1.5 h, the mice were sacrificed by CO2 inhalation and blood was harvested by cardiocentesis. Blood was clarified by centrifugation at 15,600×g for 5 min., and sera were transferred to clean tubes and frozen at −20° C. until analyzed for TNF-α by ELISA assay (Biosource International, Camarillo, Calif.) following the manufacturer's protocol. […]

Row | IC50 [1] [µM] | melting point [°C] | IC50 [2] [µM] | Structure (SMILES) | % Inhibition (TNF-α content in test group relative to vehicle treated group) [3] [%]
1 | 1.81 | 148 to 152.5 | 1.77 | Nc1c(C(=O)c2ccc(CCCO)cc2)cnn1-c1ccccc1 [compound 1] | –
2 | 3.29 | 166.7 to 168.2 | 6.3 | Nc1c(C(=O)c2ccc(C=CCN3CCOCC3)cc2)cnn1-c1ccc(F)cc1 [compound 2] | –
3 | 1.78 | – | – | Nc1c(C(=O)c2cccc(C#CCN3CCOCC3)c2)cnn1-c1ccc(F)cc1 [compound 3, 5-Amino-1-(4-fluorophenyl)-4-[3-{3-(morpholin-4-yl)prop-1-ynyl}benzoyl]pyrazole] | –
4 | 6.18 | 161.6 to 162.8 | 1.26 | Nc1c(C(=O)c2cccc(C=CCN3CCOCC3)c2)cnn1-c1ccc(F)cc1 [compound 4] | –
5 | 1.74 | – | – | Nc1c(C(=O)c2cccc(CCCN3CCOCC3)c2)cnn1-c1ccc(F)cc1 [compound 6, 5-Amino-1-(4-fluorophenyl)-4-[3-(3-morpholin-4-ylpropyl)benzoyl]pyrazole hydrochloride] | –
6 | – | – | – | CN1CCN(CC#Cc2cccc(C(=O)c3cnn(-c4ccc(F)cc4)c3N)c2)CC1.Cl.Cl [compound 8, 5-amino-1-(4-fluorophenyl)-4-{3-[3-(4-methylpiperazin-1-yl)prop-1-ynyl]benzoyl}pyrazole.2HCl] | 86
7 | – | – | 1.62 | Nc1c(C(=O)c2cccc(C=CS(N)(=O)=O)c2)cnn1-c1ccc(F)cc1 [compound 10, 5-amino-4-[3-(2-aminosulfonylethenyl)benzoyl]-1-(4-fluorophenyl)pyrazole] | –
8 | 2.18 | – | 0.61 | Nc1c(C(=O)c2cccc(OCCCN3CCCCC3)c2)cnn1-c1ccc(F)cc1 [compound 21] | –
9 | 2.72 | – | 0.83 | N#CCCCOc1cccc(C(=O)c2cnn(-c3ccc(F)cc3)c2N)c1 [compound 27] | –
10 | 1.12 | 156.2 to 160.9 | 0.14 | Nc1c(C(=O)c2cccc(N3CCC(Cc4ccccc4)CC3)c2)cnn1-c1ccc(F)cc1 [compound 33] | –
11 | 6.52 | 165.2 to 165.8 | 0.17 | Nc1cccc(C(=O)c2cnn(-c3ccc(F)cc3)c2N)c1 [compound 43, 5-amino-4-(3-aminobenzoyl)-1-(4-fluorophenyl)pyrazole] | –
12 | 1.25 | – | – | Nc1c(C(=O)c2cccc(CCS(N)(=O)=O)c2)cnn1-c1ccc(F)cc1 [compound 50, 5-Amino4-[3-(2-aminosulfonylethyl)benzoyl]-1-(4-fluorophenyl)pyrazole] | –

Row | Structure (SMILES) | IC50 [1] [µM] | melting point [°C] | IC50 [2] [µM] | % Inhibition (TNF-α content in test group relative to vehicle treated group) [3] [%]
13 | Nc1c(C(=O)c2cccc(C#CCN3CCCCC3)c2)cnn1-c1ccc(F)cc1 [compound 9, 5-amino-1-(4-fluorophenyl)-4-[3-{3-(piperidin-1-yl)prop-1-ynyl}benzoyl]pyrazole.HCl] | 1.32 | – | – | –
14 | Nc1c(C(=O)c2cccc(OCCN3CCOCC3)c2)cnn1-c1ccc(F)cc1 [compound 13, 5-amino-1-(4-fluorophenyl)-4-[3-(2-morpholin-4-ylethoxy)benzoyl]pyrazole] | – | – | 0.77 | –
15 | Nc1c(C(=O)c2cccc(OCCN3CCOCC3)c2)cnn1-c1ccc(F)cc1 [compound 14, 5-Amino-1-(4-fluorophenyl)-4-[3-{2-(morpholin-4-yl)ethoxy}benzoyl]pyrazole hydrochloride] | 1.27 | – | – | –
16 | CN1CCN(C(=O)COc2cccc(C(=O)c3cnn(-c4ccc(F)cc4)c3N)c2)CC1 [compound 38] | 6.31 | – | 0.69 | –
